For 1 compound, IC50 results are on record in PMC6838339, “Discovery of Novel Multi-target Inhibitor of angiotensin type 1 receptor and neprilysin inhibitors from Traditional Chinese Medicine” (Scientific Reports, 2019).

The structures appear in SMILES notation.

The target of the test is T1, Angiotensin II type-1 receptor (AT1) (Homo sapiens, UniProt P30556).
T1 construct: gene AGTR1
T1 sequence (P30556 1-359): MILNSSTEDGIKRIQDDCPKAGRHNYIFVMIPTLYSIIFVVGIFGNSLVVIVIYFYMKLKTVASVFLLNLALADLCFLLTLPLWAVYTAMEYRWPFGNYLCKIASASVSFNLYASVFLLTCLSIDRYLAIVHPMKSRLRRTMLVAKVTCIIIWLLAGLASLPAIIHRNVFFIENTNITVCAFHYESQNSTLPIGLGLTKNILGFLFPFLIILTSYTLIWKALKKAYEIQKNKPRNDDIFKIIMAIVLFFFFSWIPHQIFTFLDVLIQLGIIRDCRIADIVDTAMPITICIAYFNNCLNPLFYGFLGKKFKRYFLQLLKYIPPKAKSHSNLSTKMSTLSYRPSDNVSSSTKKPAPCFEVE
Kind of test: FLIPR calcium influx assay in HEK293/Ga15/AT1 cells, angiotensin II stimulated. The test is classed as cell-based.

Consider `Cc1cc(OC(=O)c2c(C)cc(OC(=O)c3c(C)cc(O)cc3O)cc2O)cc(O)c1C(=O)O` [gyrophoric acid], for which the IC50 amounted to 29.8 µM.

For orientation: IC50 means the concentration needed to halve the response being measured.
